Legend:
Assay type in all cases: in vivo
oval-leafed pondweed [1] = assay: Test Example 1: weedkilling efficacy, preemergent weed treatment in the submerged state; C: oval-leafed pondweed
In short: (§1)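 Pots of alluvial soil were flooded to a 4 cm depth. Mixed weed seeds were sown and 2.5 leaf-stage rice seedlings transplanted. On sowing day, water-diluted emulsion was applied to the water surface (dose in g/ha). After 3 weeks at 25–30 °C, effects were rated.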

redroot pigweed = assay: Test Example 3: weedkilling efficacy through soil treatment; L: redroot pigweed; conditions: soil treatment, treatment dosage 320 g/ha
In short: (§2)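 Crop and weed responses were judged three weeks after a uniform surface spray of the water-diluted emulsion at the given g/ha rate. Seeds sat beneath about 1.5 cm of sterilized diluvial soil, and boxes stood in a greenhouse at 25 to 30° C.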

beet = assay: Test Example 3: soil treatment, effect on crop; f: beet; conditions: soil treatment, treatment dosage 320 g/ha
In short: as §2

barnyard grass [2] = assay: Test Example 2: weedkilling efficacy, growth period weed treatment in the submerged state; A: barnyard grass
In short: (§3)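 Weeds treated at the 1-2 leaf stage by application of diluted emulsion onto floodwater (4 cm depth, alluvial soil) at specified g/ha. Grown in greenhouse at 25 to 30° C; herbicidal effect rated three weeks after treatment.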

transplanted rice = assay: Test Example 1: preemergent weed treatment in the submerged state, effect on crop; a: transplanted rice
In short: as §1

directly sown rice = assay: Test Example 3: soil treatment, effect on crop; b: directly sown rice; conditions: soil treatment, treatment dosage 320 g/ha
In short: as §2

barnyard grass [3] = assay: Test Example 1: weedkilling efficacy, preemergent weed treatment in the submerged state; A: barnyard grass
In short: as §1

Indian mallow = assay: Test Example 3: weedkilling efficacy through soil treatment; K: Indian mallow; conditions: soil treatment, treatment dosage 320 g/ha
In short: as §2

green foxtail = assay: Test Example 3: weedkilling efficacy through soil treatment; E: green foxtail; conditions: soil treatment, treatment dosage 320 g/ha
In short: as §2

catchweed = assay: Test Example 3: weedkilling efficacy through soil treatment; O: catchweed; conditions: soil treatment, treatment dosage 320 g/ha
In short: as §2

barnyard grass [4] = assay: Test Example 3: weedkilling efficacy through soil treatment; F: barnyard grass; conditions: soil treatment, treatment dosage 320 g/ha
In short: as §2

bulrush [5] = assay: Test Example 1: weedkilling efficacy, preemergent weed treatment in the submerged state; B: bulrush
In short: as §1

soybean = assay: Test Example 3: soil treatment, effect on crop; d: soybean; conditions: soil treatment, treatment dosage 320 g/ha
In short: as §2

rapeseed = assay: Test Example 3: soil treatment, effect on crop; g: rapeseed; conditions: soil treatment, treatment dosage 320 g/ha
In short: as §2

black-grass = assay: Test Example 3: weedkilling efficacy through soil treatment; H: black-grass; conditions: soil treatment, treatment dosage 320 g/ha
In short: as §2

chickweed = assay: Test Example 3: weedkilling efficacy through soil treatment; N: chickweed; conditions: soil treatment, treatment dosage 320 g/ha
In short: as §2

corn = assay: Test Example 3: soil treatment, effect on crop; c: corn; conditions: soil treatment, treatment dosage 320 g/ha
In short: as §2

oval-leafed pondweed [6] = assay: Test Example 2: weedkilling efficacy, growth period weed treatment in the submerged state; C: oval-leafed pondweed
In short: as §3

birds-eye speedwell = assay: Test Example 3: weedkilling efficacy through soil treatment; p: birds-eye speedwell; conditions: soil treatment, treatment dosage 320 g/ha
In short: as §2

Italian ryegrass = assay: Test Example 3: weedkilling efficacy through soil treatment; I: Italian ryegrass; conditions: soil treatment, treatment dosage 320 g/ha
In short: as §2

wild oat = assay: Test Example 3: weedkilling efficacy through soil treatment; G: wild oat; conditions: soil treatment, treatment dosage 320 g/ha
In short: as §2

bulrush [7] = assay: Test Example 2: weedkilling efficacy, growth period weed treatment in the submerged state; B: bulrush
In short: as §3

crabgrass = assay: Test Example 3: weedkilling efficacy through soil treatment; D: crabgrass; conditions: soil treatment, treatment dosage 320 g/ha
In short: as §2

wheat = assay: Test Example 3: soil treatment, effect on crop; e: wheat; conditions: soil treatment, treatment dosage 320 g/ha
In short: as §2

common wind-grass = assay: Test Example 3: weedkilling efficacy through soil treatment; J: common wind-grass; conditions: soil treatment, treatment dosage 320 g/ha
In short: as §2

fig-leafed goosefoot = assay: Test Example 3: weedkilling efficacy through soil treatment; M: fig-leafed goosefoot; conditions: soil treatment, treatment dosage 320 g/ha
In short: as §2

CC(C)(C(=O)Nc1ccc(F)cn1)N1COCN(c2ccccc2)C1=O [A-2-04]
C: oval-leafed pondweed, weed kill grade (oval-leafed pondweed [1]; treatment dosage 320 g/ha): 4 (weed kill ratio 70% or more, less than 90%) | L: redroot pigweed, weedkilling efficacy grade (redroot pigweed): 0 (weed kill ratio 5% or less (practically no effect)) | f: beet, effect on crop grade (beet): 0 (weed kill ratio 5% or less (practically no effect)) | A (barnyard grass) weedkilling efficacy grade (barnyard grass [2]; treatment dosage 320 g/ha): 5 (weed kill ratio 90% or more, (practically complete withering)) | a: transplanted rice, effect on crop grade (transplanted rice; treatment dosage 320 g/ha): 0 (weed kill ratio 5% or less (practically no effect)) | b: directly sown rice, effect on crop grade (directly sown rice): 0 (weed kill ratio 5% or less (practically no effect)) | A: barnyard grass, weed kill grade (barnyard grass [3]; treatment dosage 320 g/ha): 4 (weed kill ratio 70% or more, less than 90%) | K: Indian mallow, weedkilling efficacy grade (Indian mallow): 0 (weed kill ratio 5% or less (practically no effect)) | E: green foxtail, weedkilling efficacy grade (green foxtail): 3 (weed kill ratio 40% or more, less than 70%) | O: catchweed, weedkilling efficacy grade (catchweed): 0 (weed kill ratio 5% or less (practically no effect)) | F: barnyard grass, weedkilling efficacy grade (barnyard grass [4]): 3 (weed kill ratio 40% or more, less than 70%) | B: bulrush, weed kill grade (bulrush [5]; treatment dosage 320 g/ha): 5 (weed kill ratio 90% or more, (practically complete withering)) | d: soybean, effect on crop grade (soybean): 0 (weed kill ratio 5% or less (practically no effect)) | g: rapeseed, effect on crop grade (rapeseed): 0 (weed kill ratio 5% or less (practically no effect)) | H: black-grass, weedkilling efficacy grade (black-grass): 2 (weed kill ratio 20% or more, less than 40%) | N: chickweed, weedkilling efficacy grade (chickweed): 2 (weed kill ratio 20% or more, less than 40%) | c: corn, effect on crop grade (corn): 0 (weed kill ratio 5% or less (practically no effect)) | C (oval-leafed pondweed) weedkilling efficacy grade (oval-leafed pondweed [6]; treatment dosage 320 g/ha): 4 (weed kill ratio 70% or more, less than 90%) | P: birds-eye speedwell, weedkilling efficacy grade (birds-eye speedwell): 0 (weed kill ratio 5% or less (practically no effect)) | I: Italian ryegrass, weedkilling efficacy grade (Italian ryegrass): 3 (weed kill ratio 40% or more, less than 70%) | G: wild oat, weedkilling efficacy grade (wild oat): 0 (weed kill ratio 5% or less (practically no effect)) | B (bulrush) weedkilling efficacy grade (bulrush [7]; treatment dosage 320 g/ha): 5 (weed kill ratio 90% or more, (practically complete withering)) | D: crabgrass, weedkilling efficacy grade (crabgrass): 3 (weed kill ratio 40% or more, less than 70%) | e: wheat, effect on crop grade (wheat): 0 (weed kill ratio 5% or less (practically no effect)) | J: common wind-grass, weedkilling efficacy grade (common wind-grass): 4 (weed kill ratio 70% or more, less than 90%) | M: fig-leafed goosefoot, weedkilling efficacy grade (fig-leafed goosefoot): 0 (weed kill ratio 5% or less (practically no effect))

CC(C)(C(=O)Nc1cc(F)cc(Cl)n1)N1COCN(c2ccccc2)C1=O [A-2-14]
C: oval-leafed pondweed, weed kill grade (oval-leafed pondweed [1]; treatment dosage 320 g/ha): 5 (weed kill ratio 90% or more, (practically complete withering)) | L: redroot pigweed, weedkilling efficacy grade (redroot pigweed): 5 (weed kill ratio 90% or more, (practically complete withering)) | f: beet, effect on crop grade (beet): 4 (weed kill ratio 70% or more, less than 90%) | A (barnyard grass) weedkilling efficacy grade (barnyard grass [2]; treatment dosage 320 g/ha): 5 (weed kill ratio 90% or more, (practically complete withering)) | a: transplanted rice, effect on crop grade (transplanted rice; treatment dosage 320 g/ha): 3 (weed kill ratio 40% or more, less than 70%) | b: directly sown rice, effect on crop grade (directly sown rice): 5 (weed kill ratio 90% or more, (practically complete withering)) | A: barnyard grass, weed kill grade (barnyard grass [3]; treatment dosage 320 g/ha): 5 (weed kill ratio 90% or more, (practically complete withering)) | K: Indian mallow, weedkilling efficacy grade (Indian mallow): 5 (weed kill ratio 90% or more, (practically complete withering)) | E: green foxtail, weedkilling efficacy grade (green foxtail): 5 (weed kill ratio 90% or more, (practically complete withering)) | O: catchweed, weedkilling efficacy grade (catchweed): 5 (weed kill ratio 90% or more, (practically complete withering)) | F: barnyard grass, weedkilling efficacy grade (barnyard grass [4]): 5 (weed kill ratio 90% or more, (practically complete withering)) | B: bulrush, weed kill grade (bulrush [5]; treatment dosage 320 g/ha): 5 (weed kill ratio 90% or more, (practically complete withering)) | d: soybean, effect on crop grade (soybean): 4 (weed kill ratio 70% or more, less than 90%) | g: rapeseed, effect on crop grade (rapeseed): 4 (weed kill ratio 70% or more, less than 90%) | H: black-grass, weedkilling efficacy grade (black-grass): 5 (weed kill ratio 90% or more, (practically complete withering)) | N: chickweed, weedkilling efficacy grade (chickweed): 5 (weed kill ratio 90% or more, (practically complete withering)) | c: corn, effect on crop grade (corn): 4 (weed kill ratio 70% or more, less than 90%) | C (oval-leafed pondweed) weedkilling efficacy grade (oval-leafed pondweed [6]; treatment dosage 320 g/ha): 5 (weed kill ratio 90% or more, (practically complete withering)) | P: birds-eye speedwell, weedkilling efficacy grade (birds-eye speedwell): 5 (weed kill ratio 90% or more, (practically complete withering)) | I: Italian ryegrass, weedkilling efficacy grade (Italian ryegrass): 5 (weed kill ratio 90% or more, (practically complete withering)) | G: wild oat, weedkilling efficacy grade (wild oat): 5 (weed kill ratio 90% or more, (practically complete withering)) | B (bulrush) weedkilling efficacy grade (bulrush [7]; treatment dosage 320 g/ha): 5 (weed kill ratio 90% or more, (practically complete withering)) | D: crabgrass, weedkilling efficacy grade (crabgrass): 5 (weed kill ratio 90% or more, (practically complete withering)) | e: wheat, effect on crop grade (wheat): 4 (weed kill ratio 70% or more, less than 90%) | J: common wind-grass, weedkilling efficacy grade (common wind-grass): 5 (weed kill ratio 90% or more, (practically complete withering)) | M: fig-leafed goosefoot, weedkilling efficacy grade (fig-leafed goosefoot): 5 (weed kill ratio 90% or more, (practically complete withering))

CC(C)(C(=O)Nc1cc(Cl)cc(F)n1)N1COCN(c2ccccc2)C1=O [A-2-15]
C: oval-leafed pondweed, weed kill grade (oval-leafed pondweed [1]; treatment dosage 280 g/ha): 5 (weed kill ratio 90% or more, (practically complete withering)) | L: redroot pigweed, weedkilling efficacy grade (redroot pigweed): 4 (weed kill ratio 70% or more, less than 90%) | f: beet, effect on crop grade (beet): 3 (weed kill ratio 40% or more, less than 70%) | A (barnyard grass) weedkilling efficacy grade (barnyard grass [2]; treatment dosage 280 g/ha): 5 (weed kill ratio 90% or more, (practically complete withering)) | a: transplanted rice, effect on crop grade (transplanted rice; treatment dosage 280 g/ha): 4 (weed kill ratio 70% or more, less than 90%) | b: directly sown rice, effect on crop grade (directly sown rice): 5 (weed kill ratio 90% or more, (practically complete withering)) | A: barnyard grass, weed kill grade (barnyard grass [3]; treatment dosage 280 g/ha): 5 (weed kill ratio 90% or more, (practically complete withering)) | K: Indian mallow, weedkilling efficacy grade (Indian mallow): 4 (weed kill ratio 70% or more, less than 90%) | E: green foxtail, weedkilling efficacy grade (green foxtail): 5 (weed kill ratio 90% or more, (practically complete withering)) | O: catchweed, weedkilling efficacy grade (catchweed): 5 (weed kill ratio 90% or more, (practically complete withering)) | F: barnyard grass, weedkilling efficacy grade (barnyard grass [4]): 5 (weed kill ratio 90% or more, (practically complete withering)) | B: bulrush, weed kill grade (bulrush [5]; treatment dosage 280 g/ha): 5 (weed kill ratio 90% or more, (practically complete withering)) | d: soybean, effect on crop grade (soybean): 3 (weed kill ratio 40% or more, less than 70%) | g: rapeseed, effect on crop grade (rapeseed): 4 (weed kill ratio 70% or more, less than 90%) | H: black-grass, weedkilling efficacy grade (black-grass): 5 (weed kill ratio 90% or more, (practically complete withering)) | N: chickweed, weedkilling efficacy grade (chickweed): 5 (weed kill ratio 90% or more, (practically complete withering)) | c: corn, effect on crop grade (corn): 4 (weed kill ratio 70% or more, less than 90%) | C (oval-leafed pondweed) weedkilling efficacy grade (oval-leafed pondweed [6]; treatment dosage 280 g/ha): 5 (weed kill ratio 90% or more, (practically complete withering)) | P: birds-eye speedwell, weedkilling efficacy grade (birds-eye speedwell): 5 (weed kill ratio 90% or more, (practically complete withering)) | I: Italian ryegrass, weedkilling efficacy grade (Italian ryegrass): 5 (weed kill ratio 90% or more, (practically complete withering)) | G: wild oat, weedkilling efficacy grade (wild oat): 5 (weed kill ratio 90% or more, (practically complete withering)) | B (bulrush) weedkilling efficacy grade (bulrush [7]; treatment dosage 280 g/ha): 5 (weed kill ratio 90% or more, (practically complete withering)) | D: crabgrass, weedkilling efficacy grade (crabgrass): 5 (weed kill ratio 90% or more, (practically complete withering)) | e: wheat, effect on crop grade (wheat): 4 (weed kill ratio 70% or more, less than 90%) | J: common wind-grass, weedkilling efficacy grade (common wind-grass): 5 (weed kill ratio 90% or more, (practically complete withering)) | M: fig-leafed goosefoot, weedkilling efficacy grade (fig-leafed goosefoot): 4 (weed kill ratio 70% or more, less than 90%)

From patent publication US9738634B2, “Heterocyclic amide compound and herbicide” (SYNGENTA PARTICIPATIONS AG, priority 2013, dated 2017)
